Legend:
[1] = Tolerability in Sprague-Dawley rats, plasma chemistry markers (Example 22); assay type: in vivo; conditions: male Sprague-Dawley rats, 50 mg/kg s.c. weekly for 6 weeks (7 doses), 48 hours after last dose
Procedure: Sprague-Dawley rats are a multipurpose model used for safety and efficacy evaluations. The rats were treated with Ionis modified oligonucleotides from the studies described in the Examples above and evaluated for changes in the levels of various plasma chemistry markers.

[2] = cynomolgus monkey, in vivo, sc, 35 mg/kg
Procedure: (§1) Prior to the study, the monkeys were kept in quarantine during which the animals were observed daily for general health. The monkeys were 2-4 years old and weighed 2-4 kg. Eleven groups of 4 randomly assigned male cynomolgus monkeys each were injected subcutaneously with Ionis oligonucleotide or saline in a clock-wise rotation between four different sites on the back. Following loading doses on days 1, 3, 5 and 7, the monkeys were dosed once per week (on days 14, 21, 28, 35, and 42) with 35 mg/kg of Ionis oligonucleotide.
(§2) To evaluate the effect of Ionis oligonucleotides on hepatic and kidney function, blood samples were collected from all the study groups on day 44. The monkeys were fasted overnight prior to blood collection. Blood was collected in tubes without anticoagulant for serum separation. The tubes were kept at room temperature for a minimum of 90 minutes and then centrifuged at 3000 rpm for 10 minutes to obtain serum. Levels of various liver function markers were measured using a Toshiba 200FR NEO chemistry analyzer (Toshiba Co., Japan).

[3] = Tolerability in Sprague-Dawley rats, body and organ weights (Example 22); assay type: in vivo; conditions: male Sprague-Dawley rats, 50 mg/kg s.c. weekly for 6 weeks (7 doses); for Kidney weight / Liver weight / Spleen weight: end of study; for body weight: terminal, prior to necropsy
Procedure: Terminal body weight was measured prior to necropsy. Ionis oligonucleotides that caused any changes in organ weights outside the expected range for modified oligonucleotides were excluded from further studies.

[4] = Cynomolgus monkey tolerability, hematology (Example 34); assay type: in vivo, cynomolgus monkeys; conditions: for BAS / EOS / HCT / HGB / LUC / LYM / MCH / MCHC / MCV / MON / NEU / PLT / RBC / RCDW / Retic / WBC: cynomolgus monkey, in vivo, sc, 35 mg/kg; for MPV: cynomolgus monkeys, 35 mg/kg subcutaneously, day 44
Procedure: To evaluate any effect of Ionis oligonucleotides in cynomolgus monkeys on hematologic parameters, blood samples of approximately 0.5 mL of blood was collected from each of the available study animals on day 44. The samples were collected in tubes containing K2-EDTA. Samples were analyzed for red blood cell (RBC) count, Hemoglobin (HGB), Hematocrit (HCT), Mean corpuscular volume (MCV), mean corpuscular hemoglobin (MCH), mean corpuscular hemoglobin concentration (MCHC), RBC Distribution Width (RCDW), reticulocyte count (Retic), platelet count (PLT), mean platelet volume (MPV), white blood cells (WBC) count, individual white blood cell counts, such as that of monocytes (MON), neutrophils (NEU), lymphocytes (LYM), eosinophils (EOS), basophils (BAS), and large unstained cells (LUC) using an ADVIA2120i hematology analyzer (Siemens, USA).

Yap1 mRNA [5] = assay: Dose-dependent inhibition of human Yap1 in SNU-449 cells (Example 9, RTS36584); assay type: cell-based; conditions: free uptake; for % UTC (Yap1 mRNA): approximately 48 hours; for IC50: linear regression on a log/linear plot
Outline: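 Read-out was Yap1 mRNA (primer-probe RTS36584) normalised to total RNA by RIBOGREEN, given as % of untreated cells, with IC50 fitted by linear regression of log/linear data. Oligonucleotides were dosed by free uptake to SNU-449 cells, 10,000/well, for ~48 h.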

Yap1 mRNA [6] = assay: Dose-dependent inhibition of human Yap1 in A-431 cells (Example 24, 11,000 cells per well, RTS36584, normalized to GAPDH); assay type: cell-based; conditions: free uptake, 48 hours; for Yap1 mRNA, % UTC: RTS36584, normalized to GAPDH
Procedure: Modified oligonucleotides described in the studies above were tested at various doses in A-431 cells. Cultured A-431 cells at a density of 11,000 cells per well were treated using free uptake with modified oligonucleotides diluted to concentrations described in the tables below. After approximately 48 hours, Yap1 mRNA levels were measured as previously described using the Human Yap1 primer-probe set RTS36584. Yap1 mRNA levels were normalized to GAPDH content, as measured by primer probe set RTS104 (forward sequence […], designated herein as SEQ ID NO.: 17; reverse sequence […], designated herein as SEQ ID NO.: 18; probe sequence […], designated herein as SEQ ID NO.: 19). Results are presented in the tables below as percent control of the amount of Yap1 mRNA relative to untreated control cells (% UTC). IC50s were calculated using a linear regression on a log/linear plot of the data in excel.

Yap1 mRNA [7] = assay: Inhibition of human Yap1 mRNA in SNU449 hepatocellular carcinoma xenograft tumors (Example 26); assay type: in vivo; conditions: SNU449 xenografts in NSG mice, 50 mg/kg twice weekly for five days, relative to PBS treated animals
Outline: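 Female NSG mice bearing subcutaneous SNU449 xenografts (about 100 mm^3) dosed with modified oligonucleotides at 50 mg/kg twice weekly for five days, four per group. Tumour Yap1 mRNA measured by RT-qPCR, normalized to actin-beta, expressed as % of PBS-treated controls.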

[8] = Cynomolgus monkey tolerability, coagulation (Example 34); assay type: in vivo; conditions: cynomolgus monkeys, 35 mg/kg subcutaneously, day 44
Procedure: To evaluate effect of Ionis modified oligonucleotides on coagulation in cynomolgus monkeys, blood samples of approximately 0.9 mL were collected from each of the available study animals on day 44. The samples were collected in tubes containing 3.2% sodium citrate. Coagulation parameters tested include Activated partial thromboplastin time (APTT), prothrombin time (PT) and Figrinogen (FIB).

[9] = Cynomolgus monkey tolerability, kidney and liver function markers (Example 34); conditions: cynomolgus monkeys, 35 mg/kg subcutaneously, day 44
Procedure: as §1, §2

In the case of “1197270 (TTAAAGTGTATGTCAG; cEt gapmer with 2'-OMe nucleoside, phosphorothioate, further chemistry not given here) [compound 1197270]”, the ALT [1] is reported as 84 U/L, the AST [1] is reported as 120 U/L and the BUN [1] is reported as 24 mg/dL. For the same substance, the TBIL [1] was 0.19 mg/dL, the A/G ratio [2] was 1.2 and the Kidney weight [3] was 3.6 g. For the same substance, the Liver weight [3] was 15 g, the Spleen weight [3] was 2.0 g and the body weight [3] was 374 g. For the same substance, the BAS [4] was 0.4%, the EOS [4] was 2.7% and the HCT [4] was 44%. For the same substance, the HGB [4] was 12 g/dL, the LUC [4] was 1.2% and the LYM [4] was 54%. It also gave an MCH [4] of 22 pg, an MCHC [4] of 28 g/dL and an MCV [4] of 79 fL. The MON [4] was 3.5%, the NEU [4] was 38% and the PLT [4] was 452 10^3/μL. The RBC [4] was 5.6e+06 µL⁻¹, the RCDW [4] was 12% and the Retic [4] was 1.1%. For the same substance, the WBC [4] was 10600 µL⁻¹, the MPV [4] was 7.1 fL and the “% UTC (Yap1 mRNA)” value (Yap1 mRNA [5]; 31.3 nM) was 43 % UTC. The “% UTC (Yap1 mRNA)” value (Yap1 mRNA [5]; 125.0 nM) was 23 % UTC, the “% UTC (Yap1 mRNA)” value (Yap1 mRNA [5]; 500.0 nM) was 8 % UTC and the “% UTC (Yap1 mRNA)” value (Yap1 mRNA [5]; 2000.00 nM) was 2 % UTC. For the same substance, the IC50 (Yap1 mRNA [5]) was under 0.03 µM, the “Yap1 mRNA, % UTC” value (Yap1 mRNA [6]; 0.002 μM) was 0 % UTC and the “Yap1 mRNA, % UTC” value (Yap1 mRNA [6]; 0.008 μM) was 2 % UTC. The “Yap1 mRNA, % UTC” value (Yap1 mRNA [6]; 0.04 μM) was 26 % UTC, the “Yap1 mRNA, % UTC” value (Yap1 mRNA [6]; 0.2 μM) was 80 % UTC and the “Yap1 mRNA, % UTC” value (Yap1 mRNA [6]; 1 μM) was 99 % UTC. For the same substance, the IC50 (Yap1 mRNA [6]; linear regression on a log/linear plot) was 0.02 µM, the “Yap1 mRNA in tumors, % control” value (Yap1 mRNA [7]) was 54 % control and the APTT [8] was 17 s. The FIB [8] was 257 mg/dL, the PT [8] was 10 s and the ALB [9] was 3.7 g/dL. For the same substance, the ALP [9] was 1215 IU/L, the ALT [9] was 84 IU/L and the AST [9] was 78 IU/L. The BUN [9] was 27 mg/dL, the CREA [9] was 0.9 mg/dL and the GGT [9] was 75 IU/L. The GLO [9] was 3.1 g/dL, the GLU [9] was 115 mg/dL and the HDL [9] was 102 mg/dL. The LDL [9] was 48 mg/dL, the TBIL [9] was 0.2 mg/dL and the TG [9] was 31 mg/dL. The TP [9] was 6.8 g/dL.
In the case of “1198623 (CTAAGTAAGGTTTCCC; modified gapmer, further chemistry not given here) [compound 1198623]”, the ALT [1] is reported as 96 U/L, the AST [1] is reported as 87 U/L and the BUN [1] is reported as 21 mg/dL. For the same substance, the TBIL [1] was 0.24 mg/dL, the A/G ratio [2] was 1.4 and the Kidney weight [3] was 3.6 g. The Liver weight [3] was 20 g, the Spleen weight [3] was 1.9 g and the body weight [3] was 472 g. The BAS [4] was 0.4%, the EOS [4] was 0.8% and the HCT [4] was 46%. For the same substance, the HGB [4] was 14 g/dL, the LUC [4] was 0.7% and the LYM [4] was 53%. The MCH [4] was 23 pg, the MCHC [4] was 30 g/dL and the MCV [4] was 78 fL. For the same substance, the MON [4] was 2.0%, the NEU [4] was 43% and the PLT [4] was 376 10^3/μL. It also gave an RBC [4] of 5.9e+06 µL⁻¹, an RCDW [4] of 13% and a Retic [4] of 1.0%. For the same substance, the WBC [4] was 11700 µL⁻¹, the MPV [4] was 7.8 fL and the “% UTC (Yap1 mRNA)” value (Yap1 mRNA [5]; 31.3 nM) was 48 % UTC. For the same substance, the “% UTC (Yap1 mRNA)” value (Yap1 mRNA [5]; 125.0 nM) was 24 % UTC, the “% UTC (Yap1 mRNA)” value (Yap1 mRNA [5]; 500.0 nM) was 5 % UTC and the “% UTC (Yap1 mRNA)” value (Yap1 mRNA [5]; 2000.00 nM) was 1 % UTC. The IC50 (Yap1 mRNA [5]) was under 0.03 µM, the “Yap1 mRNA, % UTC” value (Yap1 mRNA [6]; 0.002 μM) was 2 % UTC and the “Yap1 mRNA, % UTC” value (Yap1 mRNA [6]; 0.008 μM) was 5 % UTC. The “Yap1 mRNA, % UTC” value (Yap1 mRNA [6]; 0.04 μM) was 28 % UTC, the “Yap1 mRNA, % UTC” value (Yap1 mRNA [6]; 0.2 μM) was 72 % UTC and the “Yap1 mRNA, % UTC” value (Yap1 mRNA [6]; 1 μM) was 96 % UTC. For the same substance, the “Yap1 mRNA in tumors, % control” value (Yap1 mRNA [7]) was 60 % control, the APTT [8] was 17 s and the FIB [8] was 229 mg/dL. It also gave a PT [8] of 10 s, an ALB [9] of 4.2 g/dL and an ALP [9] of 916 IU/L. It also gave an ALT [9] of 50 IU/L, an AST [9] of 47 IU/L and a BUN [9] of 26 mg/dL. The CREA [9] was 0.8 mg/dL, the GGT [9] was 59 IU/L and the GLO [9] was 3.0 g/dL. For the same substance, the GLU [9] was 70 mg/dL, the HDL [9] was 87 mg/dL and the LDL [9] was 50 mg/dL. For the same substance, the TBIL [9] was 0.2 mg/dL, the TG [9] was 34 mg/dL and the TP [9] was 7.2 g/dL.
Substance “1198872 (TGTATGTCAGAAGAGT; chemically modified gapmer, further chemistry not given here) [compound 1198872]” has an ALT [1] of 109 U/L, an AST [1] of 134 U/L and a BUN [1] of 18 mg/dL. The TBIL [1] was 0.20 mg/dL, the A/G ratio [2] was 1.3 and the Kidney weight [3] was 3.4 g. It also gave a Liver weight [3] of 17 g, a Spleen weight [3] of 1.3 g and a body weight [3] of 417 g. The BAS [4] was 0.3%, the EOS [4] was 0.6% and the HCT [4] was 44%. For the same substance, the HGB [4] was 13 g/dL, the LUC [4] was 0.5% and the LYM [4] was 32%. For the same substance, the MCH [4] was 23 pg, the MCHC [4] was 30 g/dL and the MCV [4] was 78 fL. For the same substance, the MON [4] was 2.2%, the NEU [4] was 64% and the PLT [4] was 400 10^3/μL. For the same substance, the RBC [4] was 5.7e+06 µL⁻¹, the RCDW [4] was 12% and the Retic [4] was 1.2%. For the same substance, the WBC [4] was 10400 µL⁻¹, the MPV [4] was 7.1 fL and the “% UTC (Yap1 mRNA)” value (Yap1 mRNA [5]; 31.3 nM) was 49 % UTC. For the same substance, the “% UTC (Yap1 mRNA)” value (Yap1 mRNA [5]; 125.0 nM) was 21 % UTC, the “% UTC (Yap1 mRNA)” value (Yap1 mRNA [5]; 500.0 nM) was 6 % UTC and the “% UTC (Yap1 mRNA)” value (Yap1 mRNA [5]; 2000.00 nM) was 1 % UTC. For the same substance, the IC50 (Yap1 mRNA [5]) was under 0.03 µM, the “Yap1 mRNA, % UTC” value (Yap1 mRNA [6]; 0.002 μM) was 1 % UTC and the “Yap1 mRNA, % UTC” value (Yap1 mRNA [6]; 0.008 μM) was 3 % UTC. The “Yap1 mRNA, % UTC” value (Yap1 mRNA [6]; 0.04 μM) was 19 % UTC, the “Yap1 mRNA, % UTC” value (Yap1 mRNA [6]; 0.2 μM) was 70 % UTC and the “Yap1 mRNA, % UTC” value (Yap1 mRNA [6]; 1 μM) was 94 % UTC. The “Yap1 mRNA in tumors, % control” value (Yap1 mRNA [7]) was 52 % control, the APTT [8] was 21 s and the FIB [8] was 206 mg/dL. For the same substance, the PT [8] was 10 s, the ALB [9] was 4.0 g/dL and the ALP [9] was 1098 IU/L. It also gave an ALT [9] of 48 IU/L, an AST [9] of 94 IU/L and a BUN [9] of 27 mg/dL. It also gave a CREA [9] of 0.9 mg/dL, a GGT [9] of 79 IU/L and a GLO [9] of 3.1 g/dL. For the same substance, the GLU [9] was 80 mg/dL, the HDL [9] was 114 mg/dL and the LDL [9] was 60 mg/dL. The TBIL [9] was 0.3 mg/dL, the TG [9] was 19 mg/dL and the TP [9] was 7.1 g/dL.
